Two compounds from US10543254B2, “Composition containing neuropeptide Y for inhibiting side effects of anticancer agents” (KYUNGPOOK NATIONAL UNIVERSITY INDUSTRY-ACADEMIC COOPERATION …, priority 2014, dated 2020) can be followed below.

Data set [1] deals with cisplatin-induced neuropathy. Put plainly: Hot-plate (heated-pad) test of sensory neuropathy after seven cycles of cisplatin with or without NPY. The format is in vivo, mice. As to the method: (§1) Cisplatin (Enzo; 10 mg per kg body weight once per week) was used to induce SNS injury. Mice received i.p. injections of cisplatin for 7 weeks as described. The mice were euthanized after 2 weeks after the last injection of cisplatin (for full bone marrow recovery).
(§2) To assess neuroprotection from cisplatin, mice were injected i.p. with NPY (Bachem, H-6375) daily during the 7-week cisplatin treatment period.
For measuring effects of different treatments on sensory responses, a hot-plate test was performed.
A hot plate (Leica) was maintained at 50° C. and each mouse was positioned on the end of the heated surface, first nociception, that is, a time until jumping or paw licking was measured. A cut-off time was set as 60 seconds. For the measurement, the heated surface was cleaned with a detergent and ethanol and a temperature was maintained at 50° C.
Next, control, Lyz2-cre; Y1^fl/fl, or Col1a1-cre; Y1^fl/fl mice were treated with seven cycles of cisplatin for the induction of neuropathy. In some animals, NPY was administered during cisplatin chemotherapy. […]
FIG. 2B illustrates a quantitative analysis result of sympathetic neuropathy (after 2 weeks after the last cisplatin injection) in a control group, Lyz2-cre; Y1^fl/fl or Col1a1-cre; Y1^fl/fl mice treated with cisplatin alone or cisplatin and NPY (n=6-10 mice per group, i.p). […]

The subject of data set [2] is cisplatin-induced bone marrow injury. Put plainly: Complete blood count 4 weeks after bone marrow transplantation. The format is in vivo, mice. Particulars: for HCT (hematocrit) / Hgb (hemoglobin) / MCH (mean corpuscular hemoglobin) / MCHC (mean corpuscular hemoglobin concentration) / MCV (mean cell volume) / MPV (mean platelet volume) / PLT (platelets) / RBC (red blood cell) / RDW-CV (red cell volume distribution width-coefficient of variation) / WBC (white blood cell): complete blood count 4 weeks after transplantation, groups PBS or cisplatin / PBS or NPY. The text has this: (§3) The mice were lethally irradiated (10 Gy, two split doses) and injected with 1×10^6 BM from CD45.1^+ (BoyJ) mice. After 4 weeks, the mice were sacrificed, and bone marrow and blood were obtained for analysis.
(§4) Next, to evaluate further whether NPY treatment prevents cisplatin-induced mouse death and injury of BM, bone marrow mononuclear cells (BMNCs) were transplanted into cisplatin-treated mice with or without NPY treatment after lethal irradiation. FIG. 2H illustrates an experimental design for verifying whether NPY protects a Th^+ fiber from cisplatin-induced bone marrow injury and whether to accelerate posttransplant bone marrow recovery.
Table 1 is a diagram illustrating an increase in blood cell recovery in NPY-treated mice after cisplatin treatment. A complete blood count was performed by targeting PBS or cisplatin-treated mice after 4 weeks after transplantation and after NPY treatment.

Data set [3] concerns cisplatin-induced sympathetic nervous system (SNS) injury. Put plainly: Quantification of Th+ fibers and nestin-positive and CD31+ endothelial cells in bone marrow after cisplatin with or without NPY. The format is in vivo, mice. As to the method:
as §1, §2
Next, control, Lyz2-cre; Y1^fl/fl, or Col1a1-cre; Y1^fl/fl mice were treated with seven cycles of cisplatin for the induction of neuropathy. In some animals, NPY was administered during cisplatin chemotherapy. FIG. 2A is an experimental design for determining an effect of the Y1 receptor in the macrophages or osteoblasts in cisplatin-induced neuropathy, after NPY treatment.
Further, FIG. 2E is a diagram illustrating a quantitative analysis of a Th^+ fiber in BM of each group (n=5-6 mice per group).
FIG. 2F is a diagram illustrating the number (n=5-6 mice per group) of nestin-positive and CD31^+ endothelial cells per femoral region of each group.

Data set [4] deals with cisplatin-induced bone marrow injury. In words: Bone marrow transplantation after lethal irradiation in cisplatin-treated mice with or without NPY: survival and bone marrow recovery. The format is in vivo. As to the method: as §1, §2, §3, §4
FIG. 2I illustrates a survival result of mice of each group (n=10-15 mice per group).
FIG. 2J is a diagram illustrating the number of BMNCs (left side), a percentage of LSK cells (middle), and LT-HSCs (right side) in BM of WT mice treated with PBS, cisplatin or NPY, which are evaluated after 4 weeks after transplanting bone marrow (n=5-6 mice per group).
FIG. 2K illustrates a percentage of nestin-positive and CD31^+ endothelial cells in the femur of each group.

Setting [5] is: NPY i.p. daily during 7-week cisplatin treatment, cisplatin-treated control or Col1a1-cre, Y1fl/fl mice.

`N.N.[Cl][Pt][Cl]` [Cisplatin, cisplatin, reference compound]: in data set [1] (2 weeks after the last injection, cisplatin 10 mg per kg i.p. once per week for 7 weeks), the “sensory neuropathy (hot-plate latency)” value is “had sensory neuropathy”. In data set [2], the “HCT (hematocrit)” value was found to be 53.5 ± 6.1%, the “Hgb (hemoglobin)” value worked out at 12.8 ± 0.8 g/dL, the “MCH (mean corpuscular hemoglobin)” value is listed as 17.1 ± 0.8 pg and the “MCHC (mean corpuscular hemoglobin concentration)” value stood at 27.0 ± 4.2 g/dL. In data set [2], the “MCV (mean cell volume)” value is 66.1 ± 5.2 fL, the “MPV (mean platelet volume)” value was 11.3 ± 2.3 fL, the “PLT (platelets)” value is recorded as 165.7 ± 42.4 m/mm^3 and the “RBC (red blood cell)” value amounted to 6.1 ± 0.8 m/mm^3. Further, in data set [2], the “RDW-CV (red cell volume distribution width-coefficient of variation)” value worked out at 19.4 ± 0.3% and the “WBC (white blood cell)” value is 2.2 ± 0.4 m/mm^3.
As to neuropeptide Y [NPY], the “sensory neuropathy (hot-plate latency)” value in data set [1] (setting [5]) is “improved”. In data set [3] (setting [5]), the “number of nestin-positive and CD31+ endothelial cells” value is recorded as “improved”; the “reduced density of Th+ fibers in BM” value is on record as “improved”. Besides, in data set [3] (cisplatin-treated Lyz2-cre, Y1fl/fl mice (no Y1 receptor in macrophages)), the “protection of Th+ fibers and perivascular niche cells” value is on record as “did not show NPY-mediated protection”. The “numbers of nestin-positive and CD31+ endothelial cells in the femur” value in data set [4] (cisplatin-treated mice after transplantation) is recorded as “restored”. Also, in data set [4] (cisplatin-treated mice, 4 weeks after transplanting bone marrow), the “bone marrow function after transplantation (BMNCs, LSK cells, LT-HSCs)” value was “restored”. The mouse survival result in data set [4] (cisplatin-treated mice, lethal irradiation and BMNC transplantation) is on record as “enhanced”. Further, the blood cell recovery result in data set [2] (NPY-treated mice after cisplatin treatment, 4 weeks after transplantation) is “increase”. In addition, in data set [2], the “HCT (hematocrit)” value is 49.5 ± 9.3%, the “Hgb (hemoglobin)” value was found to be 14.4 ± 0.9 g/dL, the “MCH (mean corpuscular hemoglobin)” value is recorded as 17.35 ± 1.4 pg and the “MCHC (mean corpuscular hemoglobin concentration)” value turned out to be 33.2 ± 7.6 g/dL. In data set [2], the “MCV (mean cell volume)” value came to 58.2 ± 8.8 fL, the “MPV (mean platelet volume)” value is 11.4 ± 2.8 fL, the “PLT (platelets)” value is listed as 219.3 ± 65.8 m/mm^3 and the “RBC (red blood cell)” value came to 8.4 ± 0.4 m/mm^3. Moreover, in data set [2], the “RDW-CV (red cell volume distribution width-coefficient of variation)” value is on record as 19.4 ± 0.8% and the “WBC (white blood cell)” value is given as 5.3 ± 0.4 m/mm^3.
